Each compound was assayed against T1, HIF-PH2 (Homo sapiens, UniProt Q9GZT9) (assay: HIF-PH assay (14CO2 capture, peptide-dependent turnover)). Conditions: Concentration 7.41 μM.
T1 construct: made in house; host or cells: insect Hi5 cells
Assay type: biochemical
From the text: Ketoglutaric acid α-[1-^14C]-sodium salt, alpha-ketoglutaric acid sodium salt, and HPLC purified peptide may be obtained from commercial sources, e.g., Perkin-Elmer (Wellesley Mass.), Sigma-Aldrich, and SynPep Corp. (Dublin Calif.), respectively. Peptides for use in the assay may be fragments of HIFα as described above or as disclosed in International Publication WO 2005/118836, incorporated by reference herein. For example, a HIF peptide for use in the HIF-PH assay is [methoxycoumarin]-DLDLEALAPYIPADDDFQL-amide. HIF-PH, e.g., HIF-PH2 (EGLN1), can be expressed in, e.g., insect Hi5 cells, and partially purified, e.g., through a SP ion exchange chromatography column. Enzyme activity is determined by capturing ^14CO2 using an assay described by Kivirikko and Myllyla (1982, Methods Enzymol. 82:245-304). Assay reactions contain 50 mM HEPES (pH 7.4), 100 μM α-ketoglutaric acid sodium salt, 0.30 μCi/mL ketoglutaric acid α-[1-^14C]-sodium salt, 40 μM FeSO4, 1 mM ascorbate, 1541.8 units/mL Catalase, with or without 50 μM peptide substrate and various concentrations of compound of the invention. Reactions are initiated by addition of HIF-PH enzyme.
The peptide-dependent percent turnover is calculated by subtracting percent turnover in the absence of peptide from percent turnover in the presence of substrate peptide. Percent inhibition and IC50 are calculated using peptide-dependent percent turnover at given inhibitor concentrations. Calculation of IC50 values for each inhibitor is conducted using GraFit software (Erithacus Software Ltd., Surrey UK).
Representative compounds of the invention were analyzed using the HIF-PH assay described above. Table I presents enzyme inhibition data for exemplary compounds against HIF-PH2, a representative HIF prolyl hydroxylase. By inhibiting HIF prolyl hydroxylase, compounds of the invention stabilize HIFα, which then combines with HIFβ to form an active transcription factor that increases expression of various genes involved in numerous beneficial cellular processes.

T1 sequence (Q9GZT9 whole entry, species assumed): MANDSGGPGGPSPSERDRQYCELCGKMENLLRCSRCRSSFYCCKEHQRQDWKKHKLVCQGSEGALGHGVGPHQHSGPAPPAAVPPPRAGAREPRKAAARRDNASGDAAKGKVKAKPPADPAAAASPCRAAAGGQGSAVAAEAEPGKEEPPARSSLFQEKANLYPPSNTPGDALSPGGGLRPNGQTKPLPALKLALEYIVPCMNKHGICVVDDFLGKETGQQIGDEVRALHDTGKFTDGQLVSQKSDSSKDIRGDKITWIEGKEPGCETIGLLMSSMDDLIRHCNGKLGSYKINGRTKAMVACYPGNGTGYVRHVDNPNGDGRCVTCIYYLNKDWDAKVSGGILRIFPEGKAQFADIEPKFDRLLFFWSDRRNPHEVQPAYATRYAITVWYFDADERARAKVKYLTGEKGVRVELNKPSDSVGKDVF

Question: Which inhibition at 7.41 µM does the source give for `COc1ccc(-c2ccc3oc(=O)c(C(=O)NCC(=O)O)c(O)c3c2)cc1` [Example 3, {[4-Hydroxy-6-(4-methoxy-phenyl)-2-oxo-2H-chromene-3-carbonyl]-amino}-acetic acid] here?
Answer: 94%

Question: Which inhibition at 7.41 µM does the source give for `O=C(O)CNC(=O)c1c(O)c2cc(-c3ccc(Oc4ccccc4)cc3)ccc2oc1=O` [Example 4, {[4-Hydroxy-2-oxo-6-(4-phenoxy-phenyl)-2H-chromene-3-carbonyl]-amino}-acetic acid] here?
Answer: 100%

Question: Which inhibition at 7.41 µM does the source give for `O=C(O)CNC(=O)c1c(O)c2cc(-c3ccc(C(F)(F)F)cc3)ccc2oc1=O` [Example 5, {[4-Hydroxy-2-oxo-6-(4-trifluoromethyl-phenyl)-2H-chromene-3-carbonyl]-amino}-acetic acid] here?
Answer: 96%

Same assay, conditions: Concentration 12.50 μM

Question: For `Cc1cc2oc(=O)c(C(=O)NCC(=O)O)c(O)c2cc1C` [Example 15, [(4-Hydroxy-6,7-dimethyl-2-oxo-2H-chromene-3-carbonyl)-amino]-acetic acid], which inhibition at 12.5 µM is on record?
Answer: 98%

Question: How did the inhibition at 12.5 µM turn out when `O=C(O)CNC(=O)c1c(O)c2cc(F)ccc2oc1=O` [Example 16, [(6-Fluoro-4-hydroxy-2-oxo-2H-chromene-3-carbonyl)-amino]-acetic acid] was run?
Answer: 96%

Question: How did the inhibition at 12.5 µM turn out when `O=C(O)CNC(=O)c1c(O)c2ccc(F)cc2oc1=O` [Example 17, [(7-Fluoro-4-hydroxy-2-oxo-2H-chromene-3-carbonyl)-amino]-acetic acid] was run?
Answer: 98%

Question: With `O=C(O)CNC(=O)c1c(O)c2cc(F)cc(F)c2oc1=O` [Example 18, [(6,8-Difluoro-4-hydroxy-2-oxo-2H-chromene-3-carbonyl)-amino]-acetic acid] as the compound, how does the inhibition at 12.5 µM read?
Answer: 95%

Question: With `O=C(O)CNC(=O)c1c(O)c2cc(-c3cccs3)ccc2oc1=O` [Example 27, [(4-Hydroxy-2-oxo-6-thiophen-2-yl-2H-chromene-3-carbonyl)-amino]-acetic acid] as the compound, how does the inhibition at 12.5 µM read?
Answer: 99%

Question: `O=C(O)CNC(=O)c1c(O)c2cc(-c3ccco3)ccc2oc1=O` [Example 28, [(6-Furan-2-yl-4-hydroxy-2-oxo-2H-chromene-3-carbonyl)-amino]-acetic acid] was tested. Which inhibition at 12.5 µM did it give?
Answer: 100%

Question: How did the inhibition at 12.5 µM turn out when `O=C(O)CNC(=O)c1c(O)c2ccc3ccccc3c2oc1=O` [Example 31, [(4-Hydroxy-2-oxo-2H-benzo[h]chromene-3-carbonyl)-amino]-acetic acid] was run?
Answer: 100%

Question: Which inhibition at 12.5 µM does the source give for `O=C(O)CNC(=O)c1c(O)c2cc3ccccc3cc2oc1=O` [Example 32, [(4-Hydroxy-2-oxo-2H-benzo[g]chromene-3-carbonyl)-amino]-acetic acid] here?
Answer: 98%

Question: For `O=C(O)CNC(=O)c1c(O)c2cc3cc(Br)ccc3c(Br)c2oc1=O` [Example 34, [(7,10-Dibromo-4-hydroxy-2-oxo-2H-benzo[g]chromene-3-carbonyl)-amino]-acetic acid], which inhibition at 12.5 µM is on record?
Answer: 100%

Question: For `Cc1ccc2c(O)c(C(=O)NCC(=O)O)c(=O)oc2c1` [Example 35, [(4-Hydroxy-7-methyl-2-oxo-2H-chromene-3-carbonyl)-amino]-acetic acid], which inhibition at 12.5 µM is on record?
Answer: 97%

Same assay, conditions: Concentration 22.22 μM

Question: With `O=C(O)CNC(=O)c1c(O)c2ccccc2oc1=O` [Example 1, [(4-Hydroxy-2-oxo-2H-chromene-3-carbonyl)-amino]-acetic acid] as the compound, how does the inhibition at 22.22 µM read?
Answer: 96%

Question: Which inhibition at 22.22 µM does the source give for `O=C(O)CNC(=O)c1c(O)c2cc(Br)ccc2oc1=O` [Example 2, [(6-Bromo-4-hydroxy-2-oxo-2H-chromene-3-carbonyl)-amino]-acetic acid] here?
Answer: 97%

Question: With `O=C(O)CNC(=O)c1c(O)c2cc(-c3ccc(OCc4ccccc4)cc3)ccc2oc1=O` [Example 8, {[6-(4-Benzyloxy-phenyl)-4-hydroxy-2-oxo-2H-chromene-3-carbonyl]-amino}-acetic acid] as the compound, how does the inhibition at 22.22 µM read?
Answer: 100%

Question: How did the inhibition at 22.22 µM turn out when `O=C(O)CNC(=O)c1c(O)c2ccc(Oc3ccccc3)cc2oc1=O` [Example 9, [(4-Hydroxy-2-oxo-7-phenoxy-2H-chromene-3-carbonyl)-amino]-acetic acid] was run?
Answer: 100%

Question: Which inhibition at 22.22 µM does the source give for `Cc1ccc2c(O)c(C(=O)NCC(=O)O)c(=O)oc2c1C` [Example 10, [(4-Hydroxy-7,8-dimethyl-2-oxo-2H-chromene-3-carbonyl)-amino]-acetic acid] here?
Answer: 100%

Question: With `O=C(O)CNC(=O)c1c(O)c2ccc(-c3ccc(Oc4ccccc4)cc3)cc2oc1=O` [Example 11, {[4-Hydroxy-2-oxo-7-(4-phenoxy-phenyl)-2H-chromene-3-carbonyl]-amino}-acetic acid] as the compound, how does the inhibition at 22.22 µM read?
Answer: 100%

Question: Which “% Inhibition HIF-PH2” value does the source give for `C[C@H](NC(=O)c1c(O)c2ccc(-c3ccc(Oc4ccccc4)cc3)cc2oc1=O)C(=O)O` [Example 12, 2-S-{[4-Hydroxy-2-oxo-7-(4-phenoxy-phenyl)-2H-chromene-3-carbonyl]-amino}-propionic acid] here?
Answer: 100%

Question: For `O=C(O)CNC(=O)c1c(O)c2cc(Cl)cc(Cl)c2oc1=O` [Example 13, [(6,8-Dichloro-4-hydroxy-2-oxo-2H-chromene-3-carbonyl)-amino]-acetic acid], which inhibition at 22.22 µM is on record?
Answer: 96%

Same assay, conditions: Concentration 50.00 μM

Question: With `Cc1cc(Cl)cc2c(O)c(C(=O)NCC(=O)O)c(=O)oc12` [Example 19, [(6-Chloro-4-hydroxy-8-methyl-2-oxo-2H-chromene-3-carbonyl)-amino]-acetic acid] as the compound, how does the inhibition at 50 µM read?
Answer: 99%

Question: Which inhibition at 50 µM does the source give for `Cc1cccc2c(O)c(C(=O)NCC(=O)O)c(=O)oc12` [Example 20, [(4-Hydroxy-8-methyl-2-oxo-2H-chromene-3-carbonyl)-amino]-acetic acid] here?
Answer: 99%

Question: Which inhibition at 50 µM does the source give for `Cn1nc(C(F)(F)F)cc1-c1cc(Cl)cc2c(O)c(C(=O)NCC(=O)O)c(=O)oc12` [Example 21, {[6-Chloro-4-hydroxy-8-(2-methyl-5-trifluoromethyl-2H-pyrazol-3-yl)-2-oxo-2H-chromene-3-carbonyl]-amino}-acetic acid] here?
Answer: 99%

Question: For `O=C(O)CNC(=O)c1c(O)c2cc(Cl)cc(-c3cccnc3)c2oc1=O` [Example 23, [(6-Chloro-4-hydroxy-2-oxo-8-pyridin-3-yl-2H-chromene-3-carbonyl)-amino]-acetic acid], which inhibition at 50 µM is on record?
Answer: 99%

Question: How did the inhibition at 50 µM turn out when `O=C(O)CNC(=O)c1c(O)c2cc(-c3cccnc3)ccc2oc1=O` [Example 29, [(4-Hydroxy-2-oxo-6-pyridin-3-yl-2H-chromene-3-carbonyl)-amino]-acetic acid] was run?
Answer: 97%

Question: For `O=C(O)CNC(=O)c1c(O)c2cc(-c3ccccn3)ccc2oc1=O` [Example 30, [(4-Hydroxy-2-oxo-6-pyridin-2-yl-2H-chromene-3-carbonyl)-amino]-acetic acid], which inhibition at 50 µM is on record?
Answer: 99%

Question: With `O=C(O)CNC(=O)c1c(O)c2c(OCc3ccccc3)cccc2oc1=O` [Example 46, [(5-Benzyloxy-4-hydroxy-2-oxo-2H-chromene-3-carbonyl)-amino]-acetic acid] as the compound, how does the inhibition at 50 µM read?
Answer: 99%

Question: For `O=C(O)CNC(=O)c1c(O)c2c(OCc3ccc(F)cc3)cccc2oc1=O` [Example 47, {[5-(4-Fluoro-benzyloxy)-4-hydroxy-2-oxo-2H-chromene-3-carbonyl]-amino}-acetic acid], which inhibition at 50 µM is on record?
Answer: 99%

Question: Which inhibition at 50 µM does the source give for `Cc1ccc(COc2cccc3oc(=O)c(C(=O)NCC(=O)O)c(O)c23)cc1` [Example 48, {[4-Hydroxy-5-(4-methyl-benzyloxy)-2-oxo-2H-chromene-3-carbonyl]-amino}-acetic acid] here?
Answer: 99%

Same assay, conditions: Concentration 200.00 μM

Question: `Cc1ccc2oc(=O)c(C(=O)NCC(=O)O)c(O)c2c1` [Example 6, [(4-Hydroxy-6-methyl-2-oxo-2H-chromene-3-carbonyl)-amino]-acetic acid] was tested. Which inhibition at 200 µM did it give?
Answer: 100%

Question: `O=C(O)CNC(=O)c1c(O)c2cccc(Cl)c2oc1=O` [Example 7, [(8-Chloro-4-hydroxy-2-oxo-2H-chromene-3-carbonyl)-amino]-acetic acid] was tested. Which inhibition at 200 µM did it give?
Answer: 100%

Question: How did the inhibition at 200 µM turn out when `CCOC(=O)CNC(=O)c1c(O)c2cc(Cl)cc(Cl)c2oc1=O` [Example 14, [(6,8-Dichloro-4-hydroxy-2-oxo-2H-chromene-3-carbonyl)-amino]-acetic acid ethyl ester] was run?
Answer: 43%

Question: With `O=C(O)CNC(=O)c1c(O)c2c(ccc3ccccc32)oc1=O` [Example 33, [(1-Hydroxy-3-oxo-3H-benzo[f]chromene-2-carbonyl)-amino]-acetic acid] as the compound, how does the inhibition at 200 µM read?
Answer: 100%
